We go through 20 compounds from US20160223522A1, “ASSAY FOR DETERMINING RELATIVE REDOX CHANGES IN LIVING CELLS AND ASSOCIATED DEVICES, SYSTEMS, AND METHODS” (University of Utah Research Foundation, priority 2013, published 2016).

Data set [1] has as its system BJ fibroblasts. Nature of the data set: Secondary test: protection of cells from hydrogen peroxide oxidative stress, viability by Alamar Blue. The class given is cell-based, human. Particulars: 4 μM hit for 24 hours; 980 μM hydrogen peroxide for four hours; viability 24 hours following treatment (FIG. 11c). The procedure: (§1) For comparison with Alamar Blue™ (Invitrogen, Carlsbad, Calif.), cells in a 96-well plate were washed with PBS followed by four hours of incubation with Alamar Blue diluted 1:10 in normal media according to the manufacturer's instructions. Alamar Blue fluorescence was assayed in a plate reader using excitation and emission wavelengths 540 nm and 590 nm, respectively.
(§2) A secondary test was performed to evaluate the ability of each hit to protect cells from oxidative stress. Cells in 96-well plates were incubated with hits dissolved to 4 μM in cell media for 24 hours (three wells per compound). Cells were then washed once with PBS, and treated with hydrogen peroxide dissolved in cell media for four hours. Cells were then washed once with PBS, and cell viability was assayed with Alamar Blue.
(§3) Control cells were not treated with hydrogen peroxide. Every other category, including DMSO, was treated with 240 μM hydrogen peroxide for four hours prior to viability assessment with Alamar Blue. P-value for 10E4 vs. DMSO is 0.04, p-value for 10E4 vs. control is 0.98, and p-value for DMSO vs. control is 0.02. […] Control cells were not treated with hydrogen peroxide. DMSO pre-treated cells and every other category was treated with 980 μM hydrogen peroxide for four hours prior to the addition of Alamar Blue. […]

Data set [2] relates to H9C2 cells. The description is as above. The class given is cell-based, rat. The conditions noted are these: 4 μM hit for 24 hours; 24 hours after treatment with 600 μM hydrogen peroxide (FIG. 11b). The method, then:
as §1, §2, §3

Data set [3] concerns BJ fibroblasts. The data set is described as follows: Reductide plate reader assay in cells (FAM signal after treatment with redox-modifying agents). The conditions noted are these: for reductide FAM signal, % of control at 50 µM: Homo sapiens, Fibroblast, 50 μM compound for 24 hours, then reductide 1.5 μM for four hours, in comparison with vehicle treated cells, read-out: % change from control (reductide FAM signal). Format: cell-based, human. The procedure:
BJ fibroblasts were trypsinized and re-plated in a 96-well plate (5,000 cells/well) in normal growth medium and allowed to attach overnight. Media was replaced with normal media supplemented with the chemical redox-modifying agent indicated in the “Results” section for the indicated duration of treatment. Cells were subsequently washed one time with PBS and media was replaced with normal media supplemented with reductide 1 μM.
BJ fibroblasts in 96-well plates were pretreated with various redox-modifying agents followed by washing, incubation with reductide, and assessment of fluorescence by plate reader. […] However, following twenty-four hours of treatment with H2O2, FAM signal was increased for BJ fibroblasts treated with 200-400 μM H2O2 (FIG. 4D) but decreased with higher doses.
Although glutathione is the most abundant intracellular redox buffering system, the protein thioredoxin also acts as an important redox buffer. In order to test whether uptake and reduction of reductide is affected by glutathione status, thioredoxin status, or both, BJ fibroblasts were treated with the specific inhibitor of thioredoxin reductase, aurothioglucose, the inhibitor of glutathione biosynthesis, 1-buthionine sulfoximine (BSO), or both for 24 hours followed by washing, incubation with reductide for four hours, and plate reader assay. […] Thus, uptake and reduction of reductide depends on both glutathione and thioredoxin systems.
In another test to determine whether uptake and reduction of reductide is affected by glutathione status, BJ fibroblasts were treated with 1-buthionine sulfoximine (BSO), an inhibitor of glutathione biosynthesis, or diamide, a thiol oxidizing agent that decreases the cellular GSH to GSSG ratio. […] The following day, cells were treated with the glutathione biosynthesis inhibitor 1-buthionine sulfoximine (BSO) (FIG. 6a) or the thiol oxidizing agent diamide (FIG. 6b) in normal media also containing reductide 1 μM.
The following day, cells were incubated in normal cell media supplemented with 50 μM of a redox-modifying compound from the redox library distributed from Enzo Life Sciences. Each redox compound was used to treat three wells for 24 hours. Afterward, cells were washed with PBS followed by incubation in reductide 1 μM dissolved in normal media for four hours. FAM signal from reduction of reductide's disulfide bond was assayed in a plate reader. Most compounds in the library are classified as antioxidants. […] It should be noted that the screening conditions (50 μM concentration, 24 hour drug incubation) were not optimized for each drug individually. That many antioxidants can act as pro-oxidants if their concentration is sufficiently high is well known. […] When retested at new concentrations, different results were obtained (FIG. 10a-c), showing an increase in signal expected for reduction.
Cells were subsequently washed with PBS and incubated with reductide 1.5 μM dissolved in cell media for four hours. FAM signal was assayed in a plate reader. The redox modifying compounds were obtained as an 84 compound library from Enzo Life Sciences. Percentage change in reductide signal in comparison with vehicle treated cells are shown for a subset of the redox modifying compounds.

The subject of data set [4] is IMR90 fibroblasts. The data set is described as follows: Flow cytometry of cells incubated with reductide (TAMRA, FAM, DAPI, side-scatter). The class given is cell-based, human.
Method: IMR90 fibroblasts were seeded onto six 10 cm dishes at a density of 1.8×10^6 cells and allowed to attach overnight. Three dishes were treated with H2O2 600 μM and another three with NAC 4 mM, each in normal media, for one hour. Cells were washed with PBS followed by incubation with reductide 1 μM in normal media for 3, 15, or 30 minutes. Cells were then washed again with PBS followed by trypsinization and collection in normal media without phenol red. Cell concentration was 10^6 per ml. DAPI was added at 1:500 dilution and cells were analyzed by flow cytometry for TAMRA and FAM fluorescence.
IMR90 cells were seeded into 10 cm dishes at a density of 1.8×106 and allowed to attach overnight. The following day, cells were pretreated with NAC 4 mM or H2O2 600 μM for 60 minutes prior to peptide incubation.
In data set [5] the test system is IMR90 fibroblasts.
Method: For comparison with monochlorobimane, IMR90 fibroblasts were seeded into a 96 well plate at a density of 50,000 cells per well and attached overnight. Cells were incubated for 60 minutes in media containing NAC or H2O2 at the indicated concentrations. Cells were washed twice in 200 μl of PBS. Monochlorobimane was used to assay reduced GSH content in half the wells using the Glutathione Assay Kit available from Sigma (CS 1020, St. Louis, Mo., USA), following the manufacturer's instructions for use in live cells in a plate reader. At the same time, reductide was dissolved in the same assay buffer used for monochlorobimane treatment and added to half of the wells at a concentration of 1 μM. Fluorimetric readings were performed in a Synergy HT plate reader using excitation and emission wavelengths of 485 nm/528 nm for reductide and 390 nm/478 nm for monochlorobimane. Each cell condition was triplicated, and each experiment was repeated two times.
Reductide (FIG. 8a) is compared with monochlorobimane (FIG. 8b), which is non-fluorescent unless conjugated to low molecular weight thiols, in IMR90 fibroblasts following pretreatment with NAC or H2O2. Cells were seeded into a 96-well plate at a density of 50,000 cells per well and allowed to attach overnight. […]
For data set [6] the following is noted: within 30 minutes of incubation; cited from earlier work.
[7] abbreviates: treated for 24 hours, washing, reductide for four hours (FIG. 5).
[8] abbreviates: treated in normal media also containing reductide 1 μM (FIGS. 6a-b).
The mark [9] stands for this setting: pretreatment at varied concentration, washing, incubation with reductide (FIG. 4A, 4B).
Setting [10] is: 50 μM for 24 hours, then reductide 1 μM for four hours.
Where [11] appears, read: retested at lower concentrations (FIG. 10a-c).

Read-outs that look alike come from different tables or passages of the source. Ends that are not written are not given here.

For `C=C(C)C(=O)C(=CC(=O)O)OC` [3E7, penicillic acid], the “viability vs. control (not treated with hydrogen peroxide)” value in data set [1] was “significantly higher than control”.

Turning to `CN(C)C(=S)SSC(=S)N(C)C` [9B11, thiram], the “viability signal vs. DMSO” value in data set [2] was “significantly higher than DMSO”.

On to `CC(=O)O[C@@H]1C[C@@]2(C)[C@H](c3ccoc3)C[C@H]3O[C@]32[C@]2(C)C(=O)C(O)=C3C(C)(C)C(=O)C=C[C@]3(C)[C@@H]12` [20B8, anthothecol], for which, in data set [2], the “viability signal vs. DMSO” value was “significantly higher than DMSO”.

In the case of `CCCCS(=N)(=O)CCC(N)C(=O)O` (centres unmarked) [BSO, 1-buthionine sulfoximine], the “reductide FAM signal” value was “significant increase in signal” in data set [3] (setting [7]) and “significant decrease in reductide FAM signal” in data set [3] (setting [8]).

On to `O=[N+]([O-])c1ccc(Cl)c([N+](=O)[O-])c1` [CDNB, 1-chloro-2,4-dinitrobenzene], for which, in data set [3] (setting [9]), the “FAM signal after pretreatment” value is given as “decreased in proportion to the concentration”.

For `O=c1c2ccccc2[se]n1-c1ccccc1` [Ebselen], in data set [3], the reductide FAM signal, % of control at 50 µM was determined as 77.2%.

As to `CCOc1ccc2c(c1)C(C)=CC(C)(C)N2` [Ethoxyquin], in data set [3], the reductide FAM signal, % of control at 50 µM came to 155%.

`Cc1cc(Cc2cc(C)cc(C(C)(C)C)c2O)c(O)c(C(C)(C)C)c1` [GERI-BP002A]: the entries for the “FAM signal relative to vehicle treated cells” value in data set [3] (setting [10]) and in data set [3] (setting [11]) were “significant decrease in FAM signal” and “increase in FAM signal consistent with reduction”, respectively.

On to `OO` [H2O2, hydrogen peroxide], for which the “FAM signal after pretreatment” value was “decreased in proportion to H2O2 concentration” in data set [3] (four hours of incubation with H2O2 (FIG. 4C)); “increased” in data set [3] (twenty-four hours of treatment, 200-400 μM H2O2 (FIG. 4D)); “decreased” in data set [3] (twenty-four hours of treatment, higher doses than 200-400 μM (FIG. 4D)). The “nonviable cells by side-scatter or DAPI signal” value in data set [4] (reductide 1 μM for 3, 15 or 30 minutes vs. controls, H2O2 600 μM pretreatment for 60 minutes) is reported as “No increase in nonviable cells”. Besides, the results for the “FAM signal following incubation with reductide” value in data set [5] (pretreatment 600 μM for 60 minutes (FIG. 8a)) and in data set [5] (pretreatment with low doses for 60 minutes (FIG. 8a)) were “significant decrease in FAM signal” and “mild increases in FAM signal”, respectively.

With `COC1=C(OC)C(=O)C(CCCCCCCCCCO)=C(C)C1=O` [Idebenone], the reductide FAM signal, % of control at 50 µM in data set [3] amounted to 121%.

As for `CCN1C(=O)C=CC1=O` [N-Ethylmaleimide], the reductide FAM signal, % of control at 50 µM in data set [3] is -71.7%.

`CC(=O)N[C@@H](CS)C(=O)O` [NAC, N-acetylcysteine]: the “FAM signal after pretreatment” value in data set [3] (setting [9]) is “increased in proportion to the concentration”. Further, the “TAMRA signal (reductide uptake)” value in data set [4] (pretreatment NAC 4 mM for 60 minutes, then reductide 1 μM) is reported as “strongest”.

For the compound `CCCCCCCCCCCCCCCC(=O)OC/C=C(C)/C=C/C=C(C)/C=C/C1=C(C)CCCC1(C)C` [Retinyl palmitate], the reductide FAM signal, % of control at 50 µM in data set [3] was found to be 124%.

On to `CC1=C(C)C(=O)C(C(CCCCCC(=O)O)c2ccccc2)=C(C)C1=O` (centres unmarked) [Seratrodast], for which the reductide FAM signal, % of control at 50 µM in data set [3] was determined as 135%.

On to `OC[C@H]1O[C@H]([S-])[C@H](O)[C@@H](O)[C@@H]1O.[Au+]` [aurothioglucose], for which the “reductide FAM signal” value in data set [3] (setting [7]) was “small increase in reductide FAM signal that was not statistically significant”.

With `COc1ccccc1OCCNCC(O)COc1cccc2[nH]c3ccccc3c12` (centres unmarked) [carvedilol], the “FAM signal relative to vehicle treated cells” value in data set [3] (setting [10]) is “significant decrease in FAM signal”; in data set [3] (setting [11]) it was “increase in FAM signal consistent with reduction”.

Regarding `CN(C)C(=O)/N=N/C(=O)N(C)C` [diamide], the “reductide FAM signal” value in data set [3] (setting [8]) is listed as “significant decrease in reductide FAM signal”.

Regarding `C[Se]CC[C@H](N)C(=O)O` [selenomethionine], the “FAM signal relative to vehicle treated cells” value in data set [3] (all concentrations tested (FIG. 10a-c)) is on record as “significant increase in FAM signal consistent with reduction”.

Turning to `CC1=C(/C=C/C(C)=C/C=C/C(C)=C/C=C/C=C(C)/C=C/C=C(C)/C=C/C2=C(C)CCCC2(C)C)C(C)(C)CCC1` [β-carotene], in data set [3], the reductide FAM signal, % of control at 50 µM was determined as 111%.

On to KLALKLALKALKAALKLA-NH2 [MAP], for which the internalized fraction in data set [6] is 60%.
